Test systems include P388 leukemia; HOP-18 NSCLC; KM20L2 colon; SN12K1 renal; DMS 114 small cell lung; P388/ADR leukemia; SNB-78 CNS; DMS 273 small cell lung; M19-MEL melanoma; RXF-631 renal; LXFL 529 NSCLC; XF 498 CNS.
Holding throughout (test): NCI tumour cell line growth inhibition, 48 h

Where “and” joins values, the source holds several entries; their conditions need not be identical. Identical values can stand only once.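 Five concentrations, 48 hours, 96-well plates. GI50: concentration for 50% inhibition of growth. The concentration for full growth arrest is given as TGI.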

Turning to `CC(C)=CCc1c(O)ccc2ccc(=O)oc12`, the TGI was above 100 µM with P388 leukemia; above 100 µM in the assay on HOP-18 NSCLC; above 100 µM in the assay with KM20L2 colon; above 100 µM in the assay with SN12K1 renal; 93.6 µM with DMS 114 small cell lung; above 100 µM in the assay on P388/ADR leukemia. Moreover, the TGI in the assay with SNB-78 CNS, with DMS 273 small cell lung and in the assay with M19-MEL melanoma was above 100 µM throughout.
With `COc1cccc2c1C(=O)c1c(O)c3c(c(O)c1C2=O)C[C@@](O)(C(=O)CO)C[C@@H]3OC1CC(N)C(OC)C(C)O1` (some centres undefined), the TGI with RXF-631 renal came out at 0.747 µM; in the assay on HOP-18 NSCLC it was 0.977 µM; in the assay with KM20L2 colon, 4.83 µM; in the assay with LXFL 529 NSCLC, 0.432 µM; in the assay with SNB-78 CNS it was 16.9 µM; in the assay on DMS 273 small cell lung, 1.4 µM. Also, the TGI with M19-MEL melanoma worked out at 0.237 µM.
Consider `COc1cc(/C=C/C(=O)O)ccc1C(=O)OCc1ccccc1`, for which the TGI in the assay with P388 leukemia, in the assay on HOP-18 NSCLC, in the assay with XF 498 CNS, in the assay with KM20L2 colon, with SN12K1 renal and in the assay with DMS 114 small cell lung was above 100 µM each time. In addition, the TGI with P388/ADR leukemia, in the assay with SNB-78 CNS, with DMS 273 small cell lung and in the assay on M19-MEL melanoma was above 100 µM each time.
Consider `CC12CCC3C(CCC4=CC(O)CCC43C=O)C1(O)CCC2c1ccc(=O)oc1` (centres undefined), for which the GI50 is 80.6 µM with P388 leukemia; 0.05 µM in the assay with KM20L2 colon; 0.00753 µM in the assay on SN12K1 renal; 89 µM in the assay with P388/ADR leukemia; 0.05 µM in the assay with SNB-78 CNS; 0.05 µM in the assay with M19-MEL melanoma. Moreover, the TGI in the assay with HOP-18 NSCLC was 0.0461 µM; in the assay with KM20L2 colon, 0.0365 µM and 0.0562 µM; in the assay on SN12K1 renal, 0.0286 µM and 0.0531 µM; in the assay on DMS 114 small cell lung it was 0.00996 µM; in the assay with SNB-78 CNS it was 0.202 µM and 0.0635 µM; in the assay on DMS 273 small cell lung, 0.0228 µM. Besides, in the assay with M19-MEL melanoma, the TGI was 0.072 µM and 0.061 µM.
Take `CCCC(O)C(NC(=O)CCl)C(=O)O` (centres undefined): the TGI in the assay on P388 leukemia, with HOP-18 NSCLC, with XF 498 CNS, in the assay on KM20L2 colon, in the assay on SN12K1 renal and in the assay on DMS 114 small cell lung was above 100 µM in each case. The TGI with P388/ADR leukemia, in the assay with SNB-78 CNS, with DMS 273 small cell lung and with M19-MEL melanoma was above 100 µM each time.

These data come from PubChem BioAssay (NCI).
